Where two headings read alike, the source gives them in different places.
Key:
[1] = test system: Aspergillus flavus; assay: checkerboard drug interaction (FICI, MICc); assay type: cell-based; settings: with VOR;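 note: simplified diagonal checkerboard screen pairing azole antifungals with FPPS inhibitors, FICI calculated under the Loewe additivity model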
Protocol: (§1) Drug interactions between antifungals and FPPS inhibitors were investigated using a simplified checkerboard diagonal screening method ([45]). […] FICIs were determined according to the Loewe additivity model ([17]).

[2] = test system: Saccharomyces cerevisiae; assay: checkerboard drug interaction (FICI, MICc); assay type: cell-based; design: INH MICc / INH MICc (ITR:INH) / INH MICc (KET:INH) / INH MICc (FLC:INH): unit not given beside the values;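 note: simplified diagonal checkerboard screen pairing antifungals with FPPS inhibitors, FICI calculated under the Loewe additivity model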
[3] = test system: Trichophyton tonsurans; assay: checkerboard drug interaction (FICI, MICc); assay type: cell-based;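 note: simplified diagonal checkerboard screen combining antifungals with FPPS inhibitors, with FICI calculated under the Loewe additivity model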
Protocol: as §1

[4] = test system: Aspergillus fumigatus; assay: MIC/MFC broth microdilution (CLSI); settings: ATCC204305
Protocol: (§2) Antifungal susceptibility was determined by broth microdilution according to the CLSI guidelines described in M27-Ed4 ([16]). […] MFC was determined by back-plating drug-treated cultures from MIC broths onto SDA plates. The MFC was defined as the lowest concentration from which no colonies could be cultured.

[5] = test system: Trichophyton rubrum; assay: MIC/MFC broth microdilution (CLSI)
Protocol: as §2

[6] = test system: Aspergillus flavus; assay: MIC/MFC broth microdilution (CLSI); settings: ATCC204304
Protocol: as §2

[7] = test system: eight fungal species; assay: checkerboard interaction with azoles, summary across the eight species; assay type: cell-based
Description: Synergy between lipophilic FPPS inhibitors and azole antifungals was investigated by determining the fractional inhibitory concentration index (FICI) (Fig. 2; Table S1 Fig. S1) ([17]). […]. Derivatives PLA9 and 11, and PDA9, 11, and 12 antagonized azoles in C. albicans, C. neoformans, and C. deuterogattii, yet were largely synergistic in C. glabrata and S. cerevisiae. […].

[8] = test system: Candida glabrata; assay: checkerboard drug interaction (FICI, MICc);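 for all read-outs here: simplified diagonal checkerboard screen pairing antifungals with FPPS inhibitors, FICI calculated under the Loewe additivity model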; assay type: cell-based; settings: for INH MICc: C. glabrata
Protocol: as §1

[9] = test system: Cryptococcus neoformans; assay: MIC/MFC broth microdilution (CLSI);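 note: susceptibility testing followed the CLSI M27-Ed4 broth microdilution document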
Protocol: as §2

[10] = test system: Cryptococcus deuterogattii; assay: MIC/MFC broth microdilution (CLSI);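 note: broth microdilution per CLSI M27-Ed4. MFC is the lowest concentration yielding no colonies when MIC broths are subcultured onto SDA plates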
Protocol: as §2

[11] = test system: eight fungal species; assay: MIC/MFC summary across the eight fungal species of Table 1; assay type: cell-based
Protocol: The antifungal activity of these compounds was evaluated according to CLSI guidelines ([16]).

[12] = test system: Candida glabrata; assay: MIC/MFC broth microdilution (CLSI);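 note: broth microdilution following CLSI M27-Ed4, MFC taken as the lowest drug level yielding no growth once MIC wells were subcultured on SDA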
Protocol: as §2

[13] = test system: Candida albicans; assay: checkerboard drug interaction (FICI, MICc);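 for all read-outs here: antifungal plus FPPS inhibitor combinations on Candida albicans tested by a simplified diagonal checkerboard screen, with FICI calculated under the Loewe additivity model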; assay type: cell-based; settings: for INH MICc: C. albicans
Protocol: as §1

[14] = FLC:INH combination, MIC of the inhibitor in combination with FLC
[15] = ITR:INH combination, MIC of the inhibitor in combination with ITR
[16] = KET:INH combination, MIC of the inhibitor in combination with KET

SMILES: CCCCCCCCCCn1cc[n+](CC(O)(P(=O)(O)O)P(=O)(O)O)c1 [10-ZOL, Decyl-zoledronate]
- bisphosphonate MICc [1]: 0.5
- FICI ([2]; 5FC:10-ZOL): 2
- FICI ([2]; ITR:10-ZOL): 1
- FLC MICc ([2]; S. cerevisiae, FLC:INH combination, MIC of FLC in combination with the inhibitor): 1
- INH MICc ([2]; S. cerevisiae, FLC:INH combination, MIC of the inhibitor in combination with FLC): 0.5
- FICI ([2]; S. cerevisiae, ITR:INH combination): 1
- ITR MICc ([2]; S. cerevisiae, ITR:INH combination, MIC of ITR in combination with the inhibitor): 0.125
- INH MICc ([2]; S. cerevisiae, ITR:INH combination, MIC of the inhibitor in combination with ITR): 0.5
- KET MICc ([2]; S. cerevisiae, KET:INH combination, MIC of KET in combination with the inhibitor): 0.25
- INH MICc ([2]; S. cerevisiae, KET:INH combination, MIC of the inhibitor in combination with KET): 0.25
- bisphosphonate MICc ([2]; with 5FC): 1
- bisphosphonate MICc ([2]; with AMB): 0.25
- bisphosphonate MICc ([2]; with CAS): 0.063
- bisphosphonate MICc ([2]; with FLC): 0.5
- bisphosphonate MICc ([2]; with ITR): 0.5
- FICI ([2]; with ITR, Saccharomyces cerevisiae): 1.00
- bisphosphonate MICc ([2]; with KET): 0.25
- bisphosphonate MICc ([2]; with VOR): 0.25
- FICI ([3]; 5FC:10-ZOL): 2
- FICI ([3]; AMB:10-ZOL): 2.92
- FICI ([3]; CAS:10-ZOL): ≥4
- FICI ([3]; FLC:10-ZOL): 0.52
- bisphosphonate MICc ([3]; with 5FC): 1
- bisphosphonate MICc ([3]; with AMB): 1
- bisphosphonate MICc ([3]; with CAS): 1
- bisphosphonate MICc ([3]; with FLC): 0.5
- bisphosphonate MICc ([3]; with ITR): 1
- bisphosphonate MICc ([3]; with KET): 0.25
- bisphosphonate MICc ([3]; with VOR): 0.5
- MFC [4]: 2 µg/mL
- MIC [4]: 1 µg/mL
- MIC / MEC [4]: 1 µg/mL
- MFC ([5]; Trichophyton rubrum): 64 µg/mL
- MIC ([5]; Trichophyton rubrum): 1 µg/mL
- MIC / MEC ([5]; Trichophyton rubrum R-218): 2 µg/mL
- MFC [6]: 4 µg/mL
- MIC [6]: 2 µg/mL
- MIC / MEC [6]: 2 µg/mL
- effect on azole MIC in combination ([7]; across all species tested): consistently reduced the MIC of the azole
- antagonism with azole drugs ([7]; any of the azole drugs in any species tested): no antagonism
- GM fungal MICc ([7]; geometric mean MIC in combination with azoles): 0.1
- INH MICc [8, 14]: 0.125
- INH MICc [8, 15]: 0.063
- INH MICc [8, 16]: 0.031
- bisphosphonate MICc ([8]; with 5FC): 0.125
- bisphosphonate MICc ([8]; with AMB): 0.25
- bisphosphonate MICc ([8]; with CAS): 0.25
- bisphosphonate MICc ([8]; with FLC): 0.125
- bisphosphonate MICc ([8]; with ITR): 0.063
- bisphosphonate MICc ([8]; with KET): 0.031
- bisphosphonate MICc ([8]; with VOR): 0.03125
- MFC ([9]; Cryptococcus neoformans): 2 µg/mL
- MIC ([9]; Cryptococcus neoformans): 1 µg/mL
- MIC / MEC ([9]; Cryptococcus neoformans H99): 0.5 µg/mL
- MFC ([10]; Cryptococcus deuterogattii): 2 µg/mL
- MIC ([10]; Cryptococcus deuterogattii): 1 µg/mL
- MIC / MEC ([10]; Cryptococcus deuterogattii R265): 1 µg/mL
- Geometric mean MFC ([11]; across eight species): 4.8 µg/mL
- Geometric mean MIC ([11]; across eight species): 1.2 µg/mL
- MFC ([11]; across eight species, read-out: Geometric mean MFC): 4.8 µg/mL
- range of MICs across the tested fungal species ([11]; eight species): 0.5 to 4 µg/mL
- MIC ([11]; geometric mean across eight species, read-out: GM fungal MIC): 1.2 µg/mL
- MIC ([11]; read-out: Geometric mean MIC): 1.2 µg/mL
- MIC / MEC ([12]; Candida glabrata CBS138 (ATCC 2001)): 0.5 µg/mL
- MFC ([12]; Nakaseomyces glabratus, CBS138): 1 µg/mL
- MIC ([12]; Nakaseomyces glabratus, CBS138): 0.5 µg/mL
- INH MICc [13, 14]: 0.0625
- INH MICc [13, 15]: 0.25
- INH MICc [13, 16]: 0.125
- bisphosphonate MICc ([13]; with 5FC): 0.5
- bisphosphonate MICc ([13]; with AMB): 0.25
- bisphosphonate MICc ([13]; with CAS): 1
- bisphosphonate MICc ([13]; with FLC): 0.0625
- bisphosphonate MICc ([13]; with ITR): 0.25
- bisphosphonate MICc ([13]; with KET): 0.125
- bisphosphonate MICc ([13]; with VOR): 0.25
